Measured values as given in patent US20070259879A1, “Piperazine and piperidine biaryl derivatives” (priority 2006, published 2007).

What follows are compounds tested on HIV-1 pseudotyped virus (assay: HIV-1 pseudotyped virus assay (luciferase reporter gene, single cycle of infection)). Conditions: Human immunodeficiency virus 1, CCR5, 72 h, read-out: Activity (antiviral activity, IC50).
Assay type: cell-based
Procedure, shortened: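 Single-cycle luciferase-reporter pseudovirus made by co-transfecting 293T cells with HIV-1 envelope plasmid plus env-defective, nef-replaced backbone; infects CD4/CCR5 or CXCR4 target cells. Compounds added before virus, serial dilutions in duplicate, two experiments; 3-day culture, lysis, luminescence. IC50 = 50% signal reduction interpolated from titration curve.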
In the case of `Cc1cc(-c2cc(Cl)c(C(=O)C(=O)N3CCN(C(=O)c4ccccc4)C[C@H]3C)c(Cl)c2)on1` [Example 220], the IC50 is reported as > 5 µM. With `C[C@@H]1CN(C(=O)c2ccccc2)CCN1C(=O)C(=O)c1ccc(-c2cc[nH]n2)c(Cl)c1N(C)C` [Example 221] the IC50 was < 5 µM. In the case of `C[C@@H]1CN(C(=O)c2ccccc2)CCN1C(=O)C(=O)c1cc(Cl)c(-c2cc[nH]n2)cc1N(C)C` [Example 222], the IC50 is reported as > 5 µM. With `C[C@@H]1CN(C(=O)c2ccccc2)CCN1C(=O)C(=O)c1ccc(-c2cc[nH]n2)cc1O` [Example 223] the IC50 was < 5 µM. In the case of `Cc1cc(-c2ccc(C(=O)C(=O)N3CCN(C(=O)c4ccccc4)C[C@H]3C)c(O)c2)on1` [Example 224], the IC50 is reported as > 5 µM. In the case of `C[C@@H]1CN(C(=O)c2ccccc2)CCN1C(=O)C(=O)c1ccc(Br)c(Cl)c1` [Example 225], the IC50 is reported as < 5 µM. With `COc1cc(Br)ccc1C(=O)C(=O)N1CCN(C(=O)c2ccccc2)C[C@H]1C` [Example 226] the IC50 was < 5 µM. In the case of `CNc1cc(-c2cc[nH]n2)ccc1C(=O)C(=O)N1CCN(C(=O)c2ccccc2)C[C@H]1C` [Example 227], the IC50 is reported as > 5 µM. For `COc1cc(Br)c(Cl)cc1C(=O)C(=O)N1CCN(C(=O)c2ccccc2)CC1` [Example 228], the IC50 was < 5 µM. `COc1cc(-c2onc(C)c2Cl)ccc1C(=O)C(=O)N1CCN(C(=O)c2ccccc2)C[C@H]1C` [Example 229] was tested, and the IC50 was < 5 µM. In the case of `C[C@@H]1CN(C(=O)c2ccccc2)CCN1C(=O)C(=O)c1cc(Cl)c(-c2cc[nH]n2)c(Cl)c1N` [Example 230], the IC50 is reported as > 5 µM. `C[C@@H]1CN(C(=O)c2ccccc2)CCN1C(=O)C(=O)c1ccc(-n2cncn2)c(Cl)c1` [Example 231] was tested, and the IC50 was > 5 µM. In the case of `C[C@@H]1CN(C(=O)c2ccccc2)CCN1C(=O)C(=O)c1ccc(-n2ccnn2)c(Cl)c1` [Example 232], the IC50 is reported as > 5 µM. For `Cc1nnc(-c2ccc(C(=O)C(=O)N3CCN(C(=O)c4ccccc4)C[C@H]3C)cc2)s1` [Example 233], the IC50 was < 5 µM. For `C[C@@H]1CN(C(=O)c2ccccc2)CCN1C(=O)C(=O)c1ccc(-c2nc[nH]n2)cc1` [Example 234], the IC50 was < 5 µM. For `Cc1cc(-c2ccc(C(O)C(=O)N3CCN(C(=O)c4ccccc4)C[C@H]3C)cc2)on1` (some centres unmarked) [Example 235], the IC50 was > 5 µM. `COc1cc(-n2ccnn2)c(Cl)cc1C(=O)C(=O)N1CCN(C(=O)c2ccccc2)CC1` [Example 236] was tested, and the IC50 was < 5 µM. In the case of `COc1cc(-c2cc[nH]n2)c(Cl)cc1C(=O)C(=O)N1C2CCC1CN(C(=O)c1ccccc1)C2` [Example 237], the IC50 is reported as > 5 µM. In the case of `COc1cc(OC)c(C(=O)C(=O)N2CCN(C(=O)c3ccccc3)C[C@H]2C)cn1` [Example 238], the IC50 is reported as > 5 µM. For `COc1cc(-c2cnn(C)c2)ncc1C(=O)C(=O)N1CCN(C(=O)c2ccccc2)C[C@H]1C` [Example 239], the IC50 was < 5 µM. For `CC1CN(C(=O)c2ccccc2)CCN1C(=O)C(=O)c1ccc(-n2cccn2)cc1` (centres unmarked) [Example 240], the IC50 was < 5 µM. `C[C@@H]1CN(C(=O)c2ccccc2)CCN1C(=O)C(=O)c1c[nH]c(-c2ccc3[nH]ccc3c2)c1` [Example 241] was tested, and the IC50 was > 5 µM. For `C[C@@H]1CN(C(=O)c2ccccc2)CCN1C(=O)C(=O)c1cnc(-c2ccccc2)c(Cl)c1O` [Example 242], the IC50 was > 5 µM. For `C[C@@H]1CN(C(=O)c2ccccc2)CCN1C(=O)C(=O)c1cnc(-c2cccs2)cc1O` [Example 243], the IC50 was > 5 µM. With `C[C@@H]1CN(C(=O)c2ccccc2)CCN1C(=O)C(=O)c1cnc(-c2ccccc2)cc1O` [Example 244] the IC50 was > 5 µM. `C[C@@H]1CN(C(=O)c2ccccc2)CCN1S(=O)(=O)c1ccc(C(=O)c2cccs2)cc1` [Example 245] was tested, and the IC50 was > 5 µM. `C[C@@H]1CN(C(=O)c2ccccc2)CCN1S(=O)(=O)c1ccc(C(=O)c2ccsc2)s1` [Example 246] was tested, and the IC50 was > 5 µM. `CC1CN(C(=O)c2ccccc2)CCN1S(=O)(=O)c1ccc(C(=O)c2ccco2)cc1` (centres unmarked) [Example 247] was tested, and the IC50 was > 5 µM. In the case of `C[C@@H]1CN(C(=O)c2ccccc2)CCN1S(=O)(=O)c1ccc(C(=O)c2ccon2)s1` [Example 248], the IC50 is reported as > 5 µM. `CC1CN(C(=O)c2ccccc2)CCN1S(=O)(=O)c1ccc(C(=O)n2ccnc2)cc1` (centres unmarked) [Example 249] was tested, and the IC50 was > 5 µM. For `Cc1cc(C)n(-c2ccc(C(=O)C(=O)N3CCN(C(=O)c4ccccc4)C[C@H]3C)cc2)n1` [Example 250], the IC50 was > 5 µM. With `C[C@@H]1CN(C(=O)c2ccccc2)CCN1C(=O)C(=O)c1cccc(-c2cnco2)c1` [Example 251] the IC50 was > 5 µM. In the case of `C[C@@H]1CN(C(=O)c2ccccc2)CCN1C(=O)C(=O)c1cccc(-c2ccccn2)c1` [Example 252], the IC50 is reported as > 5 µM. For `C[C@@H]1CN(C(=O)c2ccccc2)CCN1C(=O)C(=O)c1cccc(-c2ncccn2)c1` [Example 253], the IC50 was > 5 µM. In the case of `COc1cc(OC)nc(-c2ccc(C(=O)C(=O)N3CCN(C(=O)c4ccccc4)C[C@H]3C)cc2)n1` [Example 254], the IC50 is reported as > 5 µM.
